Several values for one entry are separate records, joined by “and”; a condition that tells them apart may be missing. Equal entries are not always repeated.
Experiment: molar heat capacity at constant pressure
Settings: 101.33 kPa, Crystal, Small sample (50 mg) DSC

[Ca+2].[O]=[Mo](=[O])([O-])[O-] [calcium molybdate(VI)]
Settings | molar heat capacity at constant pressure
596.4 K | 141.2 J/K/mol
597 K | 142.1 J/K/mol
597.4 K | 141.3 J/K/mol
598 K | 142.2 J/K/mol
598.4 K | 141.3 J/K/mol
599 K | 142.2 J/K/mol
599.4 K | 141.3 J/K/mol
600 K | 141.5 J/K/mol and 142.3 J/K/mol
600.4 K | 141.3 J/K/mol
601 K | 142.4 J/K/mol
601.4 K | 141.4 J/K/mol
602 K | 142.4 J/K/mol
602.4 K | 141.4 J/K/mol
603 K | 142.5 J/K/mol
603.4 K | 141.4 J/K/mol
604.1 K | 142.4 J/K/mol
604.4 K | 141.4 J/K/mol
605.1 K | 142.4 J/K/mol
605.4 K | 141.4 J/K/mol
606.1 K | 142.4 J/K/mol
606.4 K | 141.5 J/K/mol
607.1 K | 142.5 J/K/mol
607.4 K | 141.5 J/K/mol
608.1 K | 142.5 J/K/mol
608.4 K | 141.5 J/K/mol
609.1 K | 142.6 J/K/mol
609.4 K | 141.5 J/K/mol
610.1 K | 142.7 J/K/mol
610.4 K | 141.5 J/K/mol
611.1 K | 142.7 J/K/mol
611.4 K | 141.5 J/K/mol
612.1 K | 142.7 J/K/mol
612.4 K | 141.5 J/K/mol
613.1 K | 142.8 J/K/mol
613.4 K | 141.6 J/K/mol
614.1 K | 142.8 J/K/mol
614.4 K | 141.6 J/K/mol
615.1 K | 142.8 J/K/mol
615.4 K | 141.6 J/K/mol
616.1 K | 142.9 J/K/mol
616.4 K | 141.6 J/K/mol
617.1 K | 142.9 J/K/mol
617.4 K | 141.6 J/K/mol
618.1 K | 142.9 J/K/mol
618.4 K | 141.6 J/K/mol
619.1 K | 143 J/K/mol
619.4 K | 141.5 J/K/mol
620 K | 142.4 J/K/mol
620.1 K | 143.1 J/K/mol
620.4 K | 141.5 J/K/mol
621.1 K | 143.2 J/K/mol
621.4 K | 141.4 J/K/mol
622.1 K | 143.2 J/K/mol
622.4 K | 141.5 J/K/mol
623.1 K | 143.3 J/K/mol
623.4 K | 141.5 J/K/mol
624.1 K | 143.3 J/K/mol
624.4 K | 141.6 J/K/mol
624.5 K | 143.3 J/K/mol
625.4 K | 141.6 J/K/mol
626.4 K | 141.7 J/K/mol
627.4 K | 141.7 J/K/mol
628.4 K | 141.7 J/K/mol
629.4 K | 141.8 J/K/mol
630.4 K | 141.8 J/K/mol
631.4 K | 141.9 J/K/mol
632.4 K | 142.1 J/K/mol
633.4 K | 142.2 J/K/mol
634.4 K | 142.3 J/K/mol
635.4 K | 142.3 J/K/mol
636.4 K | 142.4 J/K/mol
637.4 K | 142.4 J/K/mol
638.4 K | 142.4 J/K/mol
639.4 K | 142.5 J/K/mol
640 K | 143.2 J/K/mol
640.4 K | 142.6 J/K/mol
641.4 K | 142.7 J/K/mol
642.4 K | 142.8 J/K/mol
643.4 K | 142.8 J/K/mol
644.4 K | 142.9 J/K/mol
645.4 K | 142.9 J/K/mol
646.4 K | 143 J/K/mol
647.4 K | 143 J/K/mol
648.4 K | 143 J/K/mol
649.4 K | 143.1 J/K/mol
650.4 K | 143.2 J/K/mol
651.4 K | 143.2 J/K/mol
652.4 K | 143.3 J/K/mol
653.4 K | 143.4 J/K/mol
654.4 K | 143.4 J/K/mol
655.4 K | 143.5 J/K/mol
656.4 K | 143.6 J/K/mol
657.4 K | 143.6 J/K/mol
658.4 K | 143.7 J/K/mol
659.4 K | 143.8 J/K/mol
660 K | 144 J/K/mol
660.4 K | 143.8 J/K/mol
661.4 K | 143.9 J/K/mol
662.4 K | 144 J/K/mol
663.4 K | 144 J/K/mol
664.4 K | 144.1 J/K/mol
665.4 K | 144.2 J/K/mol
666.4 K | 144.2 J/K/mol
667.4 K | 144.3 J/K/mol
668.4 K | 144.3 J/K/mol
669.4 K | 144.4 J/K/mol
670.4 K | 144.4 J/K/mol
671.4 K | 144.4 J/K/mol
672.4 K | 144.5 J/K/mol
673.4 K | 144.5 J/K/mol
674.4 K | 144.5 J/K/mol
675.4 K | 144.5 J/K/mol
676.4 K | 144.6 J/K/mol
677.4 K | 144.6 J/K/mol
678.4 K | 144.7 J/K/mol
679.4 K | 144.8 J/K/mol
680 K | 144.7 J/K/mol
680.4 K | 144.9 J/K/mol
681.4 K | 144.9 J/K/mol
682.4 K | 145 J/K/mol
683.4 K | 145.1 J/K/mol
684.4 K | 145.2 J/K/mol
685.4 K | 145.3 J/K/mol
686.4 K | 145.3 J/K/mol
687.4 K | 145.4 J/K/mol
688.4 K | 145.4 J/K/mol
689.4 K | 145.5 J/K/mol
690.4 K | 145.5 J/K/mol
691.4 K | 145.6 J/K/mol
692.4 K | 145.6 J/K/mol
693.4 K | 145.7 J/K/mol
694.4 K | 145.8 J/K/mol
695.4 K | 145.8 J/K/mol
696.4 K | 145.9 J/K/mol
697.4 K | 145.9 J/K/mol
698.4 K | 145.9 J/K/mol
699.4 K | 145.9 J/K/mol
700 K | 145.4 J/K/mol
700.4 K | 145.9 J/K/mol
701.4 K | 145.9 J/K/mol
702.4 K | 145.9 J/K/mol
703.4 K | 145.9 J/K/mol
704.4 K | 145.9 J/K/mol
705.4 K | 145.9 J/K/mol
706.4 K | 145.8 J/K/mol
707.4 K | 145.8 J/K/mol
708.4 K | 145.8 J/K/mol
709.4 K | 145.9 J/K/mol
710.4 K | 145.9 J/K/mol
711.4 K | 145.9 J/K/mol
712.4 K | 146 J/K/mol
713.4 K | 146 J/K/mol
714.4 K | 146 J/K/mol
715.4 K | 146 J/K/mol
716.4 K | 146.1 J/K/mol
717.4 K | 146.2 J/K/mol
718.4 K | 146.2 J/K/mol
719.4 K | 146.3 J/K/mol
720 K | 146.1 J/K/mol
720.4 K | 146.3 J/K/mol
721.4 K | 146.3 J/K/mol
722.4 K | 146.3 J/K/mol
723.4 K | 146.4 J/K/mol
724.4 K | 146.4 J/K/mol
725.4 K | 146.5 J/K/mol
726.4 K | 146.5 J/K/mol
727.4 K | 146.6 J/K/mol
728.4 K | 146.6 J/K/mol
729.4 K | 146.6 J/K/mol
730.4 K | 146.7 J/K/mol
731.4 K | 146.7 J/K/mol
732.4 K | 146.7 J/K/mol
733.4 K | 146.7 J/K/mol
734.4 K | 146.7 J/K/mol
735.4 K | 146.7 J/K/mol
736.4 K | 146.7 J/K/mol
737.4 K | 146.7 J/K/mol
738.4 K | 146.8 J/K/mol
739.4 K | 146.9 J/K/mol
740 K | 146.8 J/K/mol
740.4 K | 147 J/K/mol
741.4 K | 147 J/K/mol
742.4 K | 147.1 J/K/mol
743.4 K | 147.1 J/K/mol
744.4 K | 147.1 J/K/mol
745.4 K | 147.2 J/K/mol
746.4 K | 147.2 J/K/mol
747.4 K | 147.3 J/K/mol
748.4 K | 147.3 J/K/mol
749.4 K | 147.3 J/K/mol
750.4 K | 147.3 J/K/mol
751.4 K | 147.4 J/K/mol
752.4 K | 147.4 J/K/mol
753.4 K | 147.4 J/K/mol
754.4 K | 147.5 J/K/mol
755.4 K | 147.5 J/K/mol
756.4 K | 147.6 J/K/mol
757.4 K | 147.7 J/K/mol
758.4 K | 147.7 J/K/mol
759.4 K | 147.8 J/K/mol
760 K | 147.4 J/K/mol
760.4 K | 147.8 J/K/mol
761.4 K | 147.8 J/K/mol
762.4 K | 147.7 J/K/mol
763.4 K | 147.7 J/K/mol
764.4 K | 147.7 J/K/mol
765.4 K | 147.8 J/K/mol
766 K | 147.5 J/K/mol
766.4 K | 147.9 J/K/mol
